The source of these data is patent US7579349B2, “4-(pyrazol-3-ylamino) pyrimidine derivatives for use in the treatment of cancer” (AstraZeneca AB, priority 2003, dated 2009).

The assay has as its system murine fibroblasts (NIH3T3) over-expressing human IGF-1 receptor. The experiment in a line: Inhibition of IGF-stimulated cell proliferation (BrdU incorporation), Test (c). To be noted: inhibition of IGF-stimulated proliferation in NIH3T3 over-expressing human IGF-1 receptor. Type of assay: cell-based. As for the experimental part:
c) Inhibition of IGF-stimulated Cell Proliferation
The construction of murine fibroblasts (NIH3T3) over-expressing human IGF-1 receptor has been described by Lammers et al (EMBO J, 8, 1369-1375, 1989). These cells show a proliferative response to IGF-I which can be measured by BrdU incorporation into newly synthesised DNA. Compound potency was determined as causing inhibition of the IGF-stimulated proliferation in the following assay:
Compounds are initially dissolved in DMSO to 10 mM, followed by dilutions in DMEM+1% FCS+glutamine to give a range from […] in 1-0.00045% DMSO final concentration in assay well.
Exponentially growing NIH3T3/IGFR cells were harvested and seeded in complete growth medium into a flat-bottomed 96 well tissue culture grade plate (Costar 3525) at 1.2×10^4 cells per well in a volume of 100 μl.
Growth medium was carefully removed from each well using a multi-channel pipette. Wells were carefully rinsed three times with 200 μl with HBSS. 100 μl of starvation medium was added to each well and the plate was re-incubated for 24 hours.
50 μl of a 4× concentrate of test compound was added to appropriate wells. Cells were incubated for 30 minutes with compound alone before the addition of IGF. For cells treated with IGF, an appropriate volume (i.e. 25 μl) of starvation medium was added to make a final volume per well up to 200 μl followed by 25 μl of IGF-1 at 160 ng/ml (to give a final concentration of 20 ng/ml). […] The plate was re-incubated for 20 hours.
The incorporation of BrdU in the cells (after a 4 h incorporation period) was assessed using the BrdU Cell Proliferation Elisa according to the manufacturer's protocol.

The IC50 is the midpoint of a concentration-inhibition curve. Low readings indicate inhibition by little substance, high ones a need for much substance.

`Clc1cnc(N2CCCC2c2cc(C3CC3)no2)nc1Nc1cc(C2CC2)[nH]n1` (stereo not shown) [Example 5, 5-Chloro-2-[2-(3-cyclopropylisoxazol-5-yl]pyrrolidin-1-yl]-4-(5-cvlopropyl-1H-pyrazol-3-ylamino)phyrimidine] showed an IC50 of 0.13 µM. In other words, the sub-micromolar range. As to `Cc1cc(Nc2ccnc(N3CCCC3c3cc(-c4ccccn4)no3)n2)n[nH]1` (stereo not shown) [Example 23, 4-(5-Methyl-1H-pyrazol-3-ylamino)-2-{2-[3-(pyrid-2-yl)isoxazol-5-yl]pyrrolidin-1-yl}pyrimidine], the IC50 (Mus musculus) was 0.11 µM.

Regarding `Cc1cc(Nc2cc(C(F)(F)F)nc(N3CCCC3c3cc(-c4ccccn4)no3)n2)n[nH]1` (stereo not shown) [Example 35, 4-(5-Methyl-1H-pyrazol-3-ylamino)-2-{2-[3-(pyrid-2-yl)isoxazol-5-yl]pyrrolidin-1-yl}-6-trifluoromethylpyrimidine], it took 0.56 µM to reach half-maximal inhibition (Mus musculus) (IC50). For the molecule `Cc1cc(Nc2nc(N3CCC[C@H]3c3cc(-c4nccs4)no3)ncc2Cl)n[nH]1` [Example 38, S-5-Chloro-2-{2-[3-(thiazol-2-yl)isoxazol-5-yl]pyrrolidin-1-yl}-4-(5-methyl-1H-pyrazol-3-ylamino)pyrimidine], the IC50 amounted to 0.054 µM.
